Measured values as given in patent US20050197350A1, “Novel quinoline, tetrahydroquinazoline, and pyrimidine derivatives and methods of treatment related to the use thereof” (TAISHO PHARMACEUTICAL CO., LTD., priority 2003, published 2005).

The compounds below were run on MCH receptors (assay: MCH receptor activity class (method not given)). Conditions: activity class 1-3: percent of control at 10^-7 M or IC50.
For CN(C)c1ccnc(N[C@H]2CC[C@@H](NCCc3cccc(Cl)c3)CC2)n1 [compound 1514], the class was 3 (Class 3 The value of percent of control at 10^−7 M was more than 60% or the value of IC50 was more than 200 nM.). In the case of CN(C)c1ccnc(N[C@H]2CC[C@@H](NCCOc3ccccc3Cl)CC2)n1 [compound 1515], the class is reported as 3 (Class 3 The value of percent of control at 10^−7 M was more than 60% or the value of IC50 was more than 200 nM.). COC(CNC1CCC(Nc2nccc(N(C)C)n2)CC1)c1ccccc1 (centres unmarked) [compound 1517] was tested, and the class was 3 (Class 3 The value of percent of control at 10^−7 M was more than 60% or the value of IC50 was more than 200 nM.). CN(C)c1ccnc(N[C@H]2CC[C@@H](NCCOc3ccc(Br)cc3)CC2)n1 [compound 1518] was tested, and the class was 3 (Class 3 The value of percent of control at 10^−7 M was more than 60% or the value of IC50 was more than 200 nM.). Cc1c(C)c(C)c(CNC2CCC(Nc3nccc(N(C)C)n3)CC2)c(C)c1C (centres unmarked) [compound 1519] was tested, and the class was 3 (Class 3 The value of percent of control at 10^−7 M was more than 60% or the value of IC50 was more than 200 nM.). In the case of CCOc1cccc(CN[C@H]2CC[C@@H](Nc3nccc(N(C)C)n3)CC2)c1 [compound 1520], the class is reported as 3 (Class 3 The value of percent of control at 10^−7 M was more than 60% or the value of IC50 was more than 200 nM.). CN(C)c1ccnc(N[C@H]2CC[C@@H](NC[C@@H](COCc3ccccc3)OCc3ccccc3)CC2)n1 [compound 1521] was tested, and the class was 3 (Class 3 The value of percent of control at 10^−7 M was more than 60% or the value of IC50 was more than 200 nM.). In the case of COc1cc2ccccc2cc1CN[C@H]1CC[C@@H](Nc2nccc(N(C)C)n2)CC1 [compound 1522], the class is reported as 3 (Class 3 The value of percent of control at 10^−7 M was more than 60% or the value of IC50 was more than 200 nM.). In the case of Cc1cccc(N(CCC#N)CCN[C@H]2CC[C@@H](Nc3nccc(N(C)C)n3)CC2)c1 [compound 1523], the class is reported as 3 (Class 3 The value of percent of control at 10^−7 M was more than 60% or the value of IC50 was more than 200 nM.). CN(C)c1ccnc(N[C@H]2CC[C@@H](NCCN(CCC#N)c3ccccc3)CC2)n1 [compound 1524] was tested, and the class was 3 (Class 3 The value of percent of control at 10^−7 M was more than 60% or the value of IC50 was more than 200 nM.). COc1ccc(CCCCNC[C@H]2CC[C@@H](Nc3nccc(N(C)C)n3)CC2)cc1 [compound 1525] was tested, and the class was 3 (Class 3 The value of percent of control at 10^−7 M was more than 60% or the value of IC50 was more than 200 nM.). CN(C)c1ccnc(N[C@H]2CC[C@@H](CNCCCCCCc3ccccc3)CC2)n1 [compound 1526] was tested, and the class was 3 (Class 3 The value of percent of control at 10^−7 M was more than 60% or the value of IC50 was more than 200 nM.). With Cc1cc(C)c(CCNC[C@H]2CC[C@@H](Nc3nccc(N(C)C)n3)CC2)c(C)c1 [compound 1527] the class was 3 (Class 3 The value of percent of control at 10^−7 M was more than 60% or the value of IC50 was more than 200 nM.). In the case of CN(C)c1ccnc(N[C@H]2CC[C@@H](CNCCCCCCCCc3ccccc3)CC2)n1 [compound 1528], the class is reported as 3 (Class 3 The value of percent of control at 10^−7 M was more than 60% or the value of IC50 was more than 200 nM.). With CN(C)c1ccnc(N[C@H]2CC[C@@H](CNCCc3ccc(C(C)(C)C)cc3)CC2)n1 [compound 1529] the class was 3 (Class 3 The value of percent of control at 10^−7 M was more than 60% or the value of IC50 was more than 200 nM.). With CN(C)c1ccnc(N[C@H]2CC[C@@H](CNCCCC#Cc3ccccc3)CC2)n1 [compound 1530] the class was 3 (Class 3 The value of percent of control at 10^−7 M was more than 60% or the value of IC50 was more than 200 nM.). With COc1ccccc1CCNC[C@H]1CC[C@@H](Nc2nccc(N(C)C)n2)CC1 [compound 1531] the class was 3 (Class 3 The value of percent of control at 10^−7 M was more than 60% or the value of IC50 was more than 200 nM.). CN(C)c1ccnc(N[C@H]2CC[C@@H](CNCCCOc3ccccc3)CC2)n1 [compound 1532] was tested, and the class was 3 (Class 3 The value of percent of control at 10^−7 M was more than 60% or the value of IC50 was more than 200 nM.). With CN(C)c1ccnc(N[C@H]2CC[C@@H](CNCc3c(F)c(F)cc(F)c3F)CC2)n1 [compound 1533] the class was 3 (Class 3 The value of percent of control at 10^−7 M was more than 60% or the value of IC50 was more than 200 nM.). With CN(C)c1ccnc(N[C@H]2CC[C@@H](CNCc3cc(Cl)ccc3Cl)CC2)n1 [compound 1534] the class was 3 (Class 3 The value of percent of control at 10^−7 M was more than 60% or the value of IC50 was more than 200 nM.). In the case of COc1ccc(Cl)cc1CNC[C@H]1CC[C@@H](Nc2nccc(N(C)C)n2)CC1 [compound 1535], the class is reported as 3 (Class 3 The value of percent of control at 10^−7 M was more than 60% or the value of IC50 was more than 200 nM.). COc1cc(Cl)ccc1CNC[C@H]1CC[C@@H](Nc2nccc(N(C)C)n2)CC1 [compound 1536] was tested, and the class was 3 (Class 3 The value of percent of control at 10^−7 M was more than 60% or the value of IC50 was more than 200 nM.). With Cc1ccc(CNC[C@H]2CC[C@@H](Nc3nccc(N(C)C)n3)CC2)cc1I [compound 1537] the class was 3 (Class 3 The value of percent of control at 10^−7 M was more than 60% or the value of IC50 was more than 200 nM.). C[C@@H](CNC[C@H]1CC[C@@H](Nc2nccc(N(C)C)n2)CC1)N(Cc1ccccc1)Cc1ccccc1 [compound 1538] was tested, and the class was 3 (Class 3 The value of percent of control at 10^−7 M was more than 60% or the value of IC50 was more than 200 nM.). With CN(C)c1cc(N[C@H]2CC[C@@H](NC(=O)OCCOCc3ccccc3)CC2)nc2ccccc12 [compound 1539] the class was 3 (Class 3 The value of percent of control at 10^−7 M was more than 60% or the value of IC50 was more than 200 nM.). With CN(C)c1cc(N[C@H]2CC[C@@H](NC(=O)OCC(C)(C)C)CC2)nc2ccccc12 [compound 1540] the class was 3 (Class 3 The value of percent of control at 10^−7 M was more than 60% or the value of IC50 was more than 200 nM.). In the case of COc1cc(COC(=O)NC2CCC(Nc3cc(N(C)C)c4ccccc4n3)CC2)c([N+](=O)[O-])cc1OC (centres unmarked) [compound 1541, “[4-(4-Dimethylamino-quinolin-2-ylamino)-cyclohexyl]-carbamic acid 4,5-dimethoxy-2-nitro-benzyl ester], the class is reported as 2 (Class 2: The value of percent of control at 10^−7 M was from 40% to 60% or the value of IC′50 was from 50 nM to 200 nM.). For CN(C)c1cc(N[C@H]2CC[C@@H](NC(=O)Oc3cccc(C(F)(F)F)c3)CC2)nc2ccccc12 [compound 1542], the class was 3 (Class 3 The value of percent of control at 10^−7 M was more than 60% or the value of IC50 was more than 200 nM.). In the case of CN(C)c1cc(N[C@H]2CC[C@@H](NC(=O)Oc3ccc(Br)cc3)CC2)nc2ccccc12 [compound 1543], the class is reported as 3 (Class 3 The value of percent of control at 10^−7 M was more than 60% or the value of IC50 was more than 200 nM.). For COc1ccccc1OC(=O)N[C@H]1CC[C@@H](Nc2cc(N(C)C)c3ccccc3n2)CC1 [compound 1544], the class was 3 (Class 3 The value of percent of control at 10^−7 M was more than 60% or the value of IC50 was more than 200 nM.). In the case of COCCOC(=O)N[C@H]1CC[C@@H](Nc2cc(N(C)C)c3ccccc3n2)CC1 [compound 1545], the class is reported as 3 (Class 3 The value of percent of control at 10^−7 M was more than 60% or the value of IC50 was more than 200 nM.). In the case of CCCCCCCCOC(=O)N[C@H]1CC[C@@H](Nc2cc(N(C)C)c3ccccc3n2)CC1 [compound 1546], the class is reported as 3 (Class 3 The value of percent of control at 10^−7 M was more than 60% or the value of IC50 was more than 200 nM.). In the case of CCOC(=O)N[C@H]1CC[C@@H](Nc2cc(N(C)C)c3ccccc3n2)CC1 [compound 1547], the class is reported as 3 (Class 3 The value of percent of control at 10^−7 M was more than 60% or the value of IC50 was more than 200 nM.). CN(C)c1cc(NC2CCC(NC(=O)OCc3ccc([N+](=O)[O-])cc3)CC2)nc2ccccc12 (centres unmarked) [compound 1548] was tested, and the class was 3 (Class 3 The value of percent of control at 10^−7 M was more than 60% or the value of IC50 was more than 200 nM.). For CN(C)c1cc(N[C@H]2CC[C@@H](NC(=O)Oc3ccc4ccccc4c3)CC2)nc2ccccc12 [compound 1549], the class was 3 (Class 3 The value of percent of control at 10^−7 M was more than 60% or the value of IC50 was more than 200 nM.). For C=CCOC(=O)N[C@H]1CC[C@@H](Nc2cc(N(C)C)c3ccccc3n2)CC1 [compound 1550], the class was 3 (Class 3 The value of percent of control at 10^−7 M was more than 60% or the value of IC50 was more than 200 nM.).

Same assay, conditions: class by percent of control at 10^-7 M or IC50
For COc1ccc(Cl)cc1CNC[C@H]1CC[C@@H](Nc2nc3c(c(N(C)C)n2)CCCC3)CC1 [compound 1506], the class was 3 (Class 3 The value of percent of control at 10^−7 M was more than 60% or the value of IC50 was more than 200 nM.). With COc1cc(Cl)ccc1CNC[C@H]1CC[C@@H](Nc2nc3c(c(N(C)C)n2)CCCC3)CC1 [compound 1507] the class was 3 (Class 3 The value of percent of control at 10^−7 M was more than 60% or the value of IC50 was more than 200 nM.). In the case of Cc1ccc(CNC[C@H]2CC[C@@H](Nc3nc4c(c(N(C)C)n3)CCCC4)CC2)cc1I [compound 1508], the class is reported as 3 (Class 3 The value of percent of control at 10^−7 M was more than 60% or the value of IC50 was more than 200 nM.). With C[C@@H](CNC[C@H]1CC[C@@H](Nc2nc3c(c(N(C)C)n2)CCCC3)CC1)N(Cc1ccccc1)Cc1ccccc1 [compound 1509] the class was 3 (Class 3 The value of percent of control at 10^−7 M was more than 60% or the value of IC50 was more than 200 nM.). With CCCc1c(CNC[C@H]2CC[C@@H](Nc3nc4c(c(N(C)C)n3)CCCC4)CC2)cnn1-c1ccccc1 [compound 1510] the class was 1 (Class 1: The value of percent of control at 10^−7 M was less than 40% or the value of IC50 was less than 50 nM.). CCCc1c(CNC[C@H]2CC[C@@H](Nc3nc4c(c(N(C)C)n3)CCCC4)CC2)cnn1-c1ccc(Cl)cc1 [compound 1511] was tested, and the class was 1 (Class 1: The value of percent of control at 10^−7 M was less than 40% or the value of IC50 was less than 50 nM.). With CN(C)c1nc(N[C@H]2CC[C@@H](CNCCCCc3ccc([N+](=O)[O-])cc3)CC2)nc2c1CCCC2 [compound 1512] the class was 3 (Class 3 The value of percent of control at 10^−7 M was more than 60% or the value of IC50 was more than 200 nM.). In the case of CN(C)c1ccnc(N[C@H]2CC[C@@H](NCCc3ccc(Br)cc3)CC2)n1 [compound 1513], the class is reported as 3 (Class 3 The value of percent of control at 10^−7 M was more than 60% or the value of IC50 was more than 200 nM.).
